From ChEMBL document CHEMBL3414510 (J Med Chem, 2015)

How the values were obtained:
[1] = tested on: Liver; assay: Metabolic stability in CD1 mouse liver microsomes after 30 mins by LC/MS analysis; format: ADME; details: 0.5 h
[2] = Permeability across human Caco2 cells; format: ADME, cell-based; details: caco-2
[3] = tested on: Mus musculus; assay: Clearance in Balb/C mouse at 5 mg/kg, iv and po relative to liver blood flow; format: ADME, organism-based; parameters: dose 5 mg/kg, route oral; details: in vivo

Stability [1]: Stable | permeability [2]: permeable | CL [3]: 50%
SMILES: Cn1cc(CCn2cnc(-c3cnn(C)c3)c2-c2ccc(C#N)cc2)cn1
